Test results: PubChem BioAssay (NCI)
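48-hour exposure; five concentrations; linearly interpolated endpoints. Here, GI50 denotes the concentration required for 50% inhibition of growth. TGI: total growth inhibition.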

What was measured:
Assay in all cases: inhibition of tumour cell growth, NCI panel, 48 h
786-0 renal = test system: 786-0 renal
A498 renal = test system: A498 renal
ACHN renal = test system: ACHN renal
BT-549 breast = test system: BT-549 breast
CAKI-1 renal = test system: CAKI-1 renal
CCRF-CEM leukemia = test system: CCRF-CEM leukemia
COLO 205 colon = test system: COLO 205 colon
DU-145 prostate = test system: DU-145 prostate
EKVX NSCLC = test system: EKVX NSCLC
HCC-2998 colon = test system: HCC-2998 colon
HCT-15 colon = test system: HCT-15 colon
HL-60(TB) leukemia = test system: HL-60(TB) leukemia
HOP-92 NSCLC = test system: HOP-92 NSCLC
IGROV1 ovarian = test system: IGROV1 ovarian
K-562 leukemia = test system: K-562 leukemia
KM12 colon = test system: KM12 colon
M14 melanoma = test system: M14 melanoma
MALME-3M melanoma = test system: MALME-3M melanoma
MDA-MB-231 breast = test system: MDA-MB-231 breast
MDA-MB-435 = test system: MDA-MB-435
MDA-MB-468 breast = test system: MDA-MB-468 breast
MOLT-4 leukemia = test system: MOLT-4 leukemia
NCI-H226 lung = test system: NCI-H226 lung
NCI-H23 lung = test system: NCI-H23 lung
NCI-H522 lung = test system: NCI-H522 lung
OVCAR-3 ovarian = test system: OVCAR-3 ovarian
OVCAR-4 ovarian = test system: OVCAR-4 ovarian
OVCAR-5 ovarian = test system: OVCAR-5 ovarian
PC-3 prostate = test system: PC-3 prostate
RPMI-8226 leukemia = test system: RPMI-8226 leukemia
SF-539 CNS = test system: SF-539 CNS
SK-MEL-2 melanoma = test system: SK-MEL-2 melanoma
SK-MEL-28 melanoma = test system: SK-MEL-28 melanoma
SK-MEL-5 melanoma = test system: SK-MEL-5 melanoma
SK-OV-3 ovarian = test system: SK-OV-3 ovarian
SN12C renal = test system: SN12C renal
SNB-19 CNS = test system: SNB-19 CNS
SNB-75 CNS = test system: SNB-75 CNS
SR leukemia = test system: SR leukemia
TK-10 renal = test system: TK-10 renal
UACC-257 melanoma = test system: UACC-257 melanoma
UACC-62 melanoma = test system: UACC-62 melanoma
UO-31 renal = test system: UO-31 renal

## N[C@@H](CSSC[C@H](N)C(=O)Nc1ccc(OCC2CCCC2)cc1)C(=O)Nc1ccc(OCC2CCCC2)cc1
786-0 renal
  GI50: 1640 nM
  TGI: 3100 nM
A498 renal
  GI50: 7150 nM
  TGI: 20100 nM
ACHN renal
  GI50: 423 nM
  TGI: 1490 nM
BT-549 breast
  GI50: 1460 nM
  TGI: 3030 nM
CAKI-1 renal
  GI50: 677 nM
  TGI: 1900 nM
CCRF-CEM leukemia
  GI50: 170 nM
  TGI: 374 nM
COLO 205 colon
  GI50: 3230 nM
  TGI: 12000 nM
DU-145 prostate
  GI50: 339 nM
  TGI: 1150 nM
EKVX NSCLC
  GI50: 427 nM
  TGI: 1540 nM
HCC-2998 colon
  GI50: 278 nM
  TGI: 793 nM
HCT-15 colon
  GI50: 230 nM
  TGI: 604 nM
HL-60(TB) leukemia
  GI50: 228 nM
  TGI: 777 nM
HOP-92 NSCLC
  GI50: 1740 nM
  TGI: 3430 nM
IGROV1 ovarian
  GI50: 292 nM
  TGI: 823 nM
K-562 leukemia
  GI50: 194 nM
  TGI: 434 nM
KM12 colon
  GI50: 182 nM
  TGI: 364 nM
M14 melanoma
  GI50: 178 nM
  TGI: 344 nM
MALME-3M melanoma
  GI50: 6710 nM
  TGI: 19600 nM
MDA-MB-231 breast
  GI50: 202 nM
  TGI: 422 nM
MDA-MB-435
  GI50: 163 nM
  TGI: 340 nM
MDA-MB-468 breast
  GI50: 539 nM
  TGI: 1390 nM
MOLT-4 leukemia
  GI50: 223 nM
  TGI: 501 nM
NCI-H226 lung
  GI50: 1720 nM
  TGI: 3400 nM
NCI-H23 lung
  GI50: 408 nM
  TGI: 1510 nM
NCI-H522 lung
  GI50: 1510 nM
  TGI: 3030 nM
OVCAR-3 ovarian
  GI50: 765 nM
  TGI: 2090 nM
OVCAR-4 ovarian
  GI50: 389 nM
  TGI: 1650 nM
OVCAR-5 ovarian
  GI50: 1140 nM
  TGI: 2380 nM
PC-3 prostate
  GI50: 222 nM
  TGI: 530 nM
RPMI-8226 leukemia
  GI50: 738 nM
  TGI: 2430 nM
SF-539 CNS
  GI50: 461 nM
  TGI: 1520 nM
SK-MEL-2 melanoma
  GI50: 1700 nM
  TGI: 3170 nM
SK-MEL-28 melanoma
  GI50: 1260 nM
  TGI: 2550 nM
SK-MEL-5 melanoma
  GI50: 871 nM
  TGI: 2130 nM
SK-OV-3 ovarian
  GI50: 570 nM
  TGI: 1730 nM
SN12C renal
  GI50: 460 nM
  TGI: 960 nM
SNB-19 CNS
  GI50: 545 nM
  TGI: 1190 nM
SNB-75 CNS
  GI50: 192 nM
  TGI: 450 nM
SR leukemia
  GI50: 214 nM
  TGI: 584 nM
TK-10 renal
  GI50: 1760 nM
  TGI: 3230 nM
UACC-257 melanoma
  GI50: 1740 nM
  TGI: 3460 nM
UACC-62 melanoma
  GI50: 612 nM
  TGI: 1380 nM
UO-31 renal
  GI50: 716 nM
  TGI: 2020 nM
